Test results as given in US20230295234A1, “ANTIMICROBIAL PEPTIDOMIMETICS” (SPEXIS AG, priority 2020, published 2023).
Bridge positions count the residues as written; N and C are the ends. Square brackets hold non-standard residues; d marks the D form. Triazole bridges read from a SMILES are 1,4-linked. Peptide text beside a SMILES is read from it. * marks the point of attachment. Val(Nα-amidino) = CC(C)[C@H](NC(=N)N)C(=O)*; Aha = [N-]=[N+]=NCC[C@H](N)C(=O)O; Hyp = O=C(O)[C@@H]1C[C@@H](O)CN1; aThr = C[C@H](O)[C@H](N)C(=O)O; Pen = CC(C)(S)[C@H](N)C(=O)O; dDab = NCC[C@@H](N)C(=O)O; Pra = C#CC[C@H](N)C(=O)O; Dab = NCC[C@H](N)C(=O)O

How the values were obtained:
[1] = test system: Klebsiella pneumoniae SSI3010; conditions: SSI3010
Outline: (§1)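 Activity is measured against peptides serially diluted two-fold in water with 0.002% final Polysorbate 80. The cells are in cation-adjusted MHII broth at roughly 5×10^5 CFU/mL, prepared from a 0.5 McFarland suspension in 0.85% NaCl.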

[2] = test system: Escherichia coli MCR-1 Af 45; conditions: Mueller-Hinton broth II, 18-20 hours at 35° C.
Outline: as §1

[3] = test system: Escherichia coli ATCC 25922; conditions: ATCC 25922
Outline: as §1

[4] = test system: human red blood cells (hRBC); test: Hemolysis of human red blood cells; format: cell-based; conditions: red cells of human, 1 h
Outline: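 PBS-washed human red blood cells (20% v/v) were incubated with peptide at 200 μg/mL for 1 h at 37 °C with shaking. Supernatant OD was read at 540 nm after 8-fold dilution. Hemolysis is expressed as percent of the water control.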

SMILES	Klebsiella pneumoniae SSI3010 MIC [1] [µg/mL]	Escherichia coli MCR-1 Af 45 MIC [2] [µg/mL]	Escherichia coli ATCC 25922 MIC [3] [µg/mL]	Hemolysis at 0.2 g/L [4] [%]
CC[C@H](C)[C@H](NC(=O)[C@@H]1C[C@@H](O)CN1C(=O)[C@@H](NC(=N)N)C(C)C)C(=O)N[C@H](C(=O)N[C@@H](Cc1ccc(O)cc1)C(=O)N[C@@H]1C(=O)N[C@@H](CC(N)=O)C(=O)N[C@@H](CCCNC(=N)N)C(=O)N[C@@H](CCN)C(=O)N[C@@H]([C@@H](C)O)C(=O)N[C@H](CCN)C(=O)N[C@@H](CCCCN)C(=O)N[C@H](C(=O)N[C@@H](Cc2ccc(O)cc2)C(=O)N[C@@H](CCCNC(=N)N)C(=O)N[C@@H](Cc2ccc(O)cc2)C(=O)O)CSSC1(C)C)[C@H](C)O [Example 201] ({Val(Nα-amidino)}-[Hyp]I[aThr]Y[Pen]NR[Dab]T[dDab]KCYRY-OH; disulfide 5-12)	0.5	0.25	0.5	0
CC[C@H](C)[C@H](NC(=O)[C@@H](NC(=O)[C@@H]1CCCN1C(=O)[C@@H](N=C(N(C)C)N(C)C)C(C)C)[C@@H](C)CC)C(=O)N[C@@H](Cc1ccc(O)cc1)C(=O)N[C@H]1CSSC[C@@H](C(=O)N[C@@H](CCN)C(=O)N[C@@H](CCCNC(=N)N)C(=O)N[C@@H](Cc2ccc(O)cc2)C(=O)O)NC(=O)[C@H](CCCCN)NC(=O)[C@@H](CCN)NC(=O)[C@H]([C@@H](C)O)NC(=O)[C@H](CCN)NC(=O)[C@H](CCCNC(=N)N)NC(=O)[C@H](CC(N)=O)NC1=O [Example 202] (HELM PEPTIDE1{[CC(C)[C@H](N=C(N(C)C)N(C)C)C(=O)[*:2]].P.I.I.Y.C.N.R.[Dab].T.[NCC[C@@H](N[*:1])C(=O)[*:2]].K.C.[Dab].R.Y}$PEPTIDE1,PEPTIDE1,6:R3-13:R3$$$V2.0)	0.25	0.0625	0.0625	0
CC[C@H](C)[C@H](NC(=O)[C@@H]1C[C@@H](O)CN1C(=O)[C@@H](N=C(N(C)C)N(C)C)C(C)C)C(=O)N[C@H](C(=O)N[C@@H](Cc1ccc(O)cc1)C(=O)N[C@@H]1C(=O)N[C@@H](CC(N)=O)C(=O)N[C@@H](CCCNC(=N)N)C(=O)N[C@@H](CCN)C(=O)N[C@@H]([C@@H](C)O)C(=O)N[C@H](CCN)C(=O)N[C@@H](CCCCN)C(=O)N[C@H](C(=O)N[C@@H](CCN)C(=O)N[C@@H](CCCNC(=N)N)C(=O)N[C@@H](Cc2ccc(O)cc2)C(=O)O)CSSC1(C)C)[C@@H](C)O [Example 203] (HELM PEPTIDE1{[CC(C)[C@H](N=C(N(C)C)N(C)C)C(=O)[*:2]].[Hyp].I.T.Y.[Pen].N.R.[Dab].T.[NCC[C@@H](N[*:1])C(=O)[*:2]].K.C.[Dab].R.Y}$PEPTIDE1,PEPTIDE1,6:R3-13:R3$$$V2.0)	0.5	0.125	0.25	0
CC[C@H](C)[C@H](NC(=O)[C@@H](NC(=O)[C@@H]1C[C@@H](O)CN1C(=O)[C@@H](N)C(C)C)[C@@H](C)CC)C(=O)N[C@@H](Cc1ccc(O)cc1)C(=O)N[C@H]1Cc2cn(nn2)CC[C@@H](C(=O)N[C@@H](CCN)C(=O)N[C@@H](CCCNC(=N)N)C(=O)N[C@@H](Cc2ccc(O)cc2)C(=O)O)NC(=O)[C@H](CCCCN)NC(=O)[C@@H](CCN)NC(=O)[C@H]([C@@H](C)O)NC(=O)[C@H](CCN)NC(=O)[C@H](CCCNC(=N)N)NC(=O)[C@H](CC(N)=O)NC1=O [Example 204] (H-V[Hyp]IIY[Pra]NR[Dab]T[dDab]K[Aha][Dab]RY-OH; triazole 6-13)	2	0.25	0.25	0
CC[C@H](C)[C@H](NC(=O)[C@@H](NC(=O)[C@@H]1C[C@@H](O)CN1C(=O)[C@@H](N)C(C)C)[C@@H](C)CC)C(=O)N[C@@H](Cc1ccc(O)cc1)C(=O)N[C@H]1CC(=O)NCC[C@@H](C(=O)N[C@@H](CCN)C(=O)N[C@@H](CCCNC(=N)N)C(=O)N[C@@H](Cc2ccc(O)cc2)C(=O)O)NC(=O)[C@H](CCCCN)NC(=O)[C@@H](CCN)NC(=O)[C@H]([C@@H](C)O)NC(=O)[C@H](CCN)NC(=O)[C@H](CCCNC(=N)N)NC(=O)[C@H](CC(N)=O)NC1=O [Example 205] (HELM PEPTIDE1{V.[Hyp].I.I.Y.D.N.R.[Dab].T.[NCC[C@@H](N[*:1])C(=O)[*:2]].K.[Dab].[Dab].R.Y}$PEPTIDE1,PEPTIDE1,6:R3-13:R3$$$V2.0)	0.25	0.125	0.125	0
